# Experimental data reported in patent publication US20260070945A1, “MACROCYCLIC IMMUNOMODULATORS” (Bristol-Myers Squibb Company, priority 2022, published 2026).
# Where a SMILES comes first, the peptide text is derived from it. Bridges are numbered along the chain shown (N, C = ends). [ ]: non-standard residue; d: D form. The star is where a group is joined. ξ: configuration not given here. Phe(3-CF3) = N[C@@H](Cc1cccc(C(F)(F)F)c1)C(=O)O; Phe(4-COOH) = N[C@@H](Cc1ccc(C(=O)O)cc1)C(=O)O; Bip = N[C@@H](Cc1ccc(-c2ccccc2)cc1)C(=O)O; Phe(3-Me) = Cc1cccc(C[C@H](N)C(=O)O)c1; Phe(4-Me) = Cc1ccc(C[C@H](N)C(=O)O)cc1; NH(CH2)12COOH = O=C(O)CCCCCCCCCCCCN*; Val(3-OH) = CC(C)(O)[C@H](N)C(=O)O; 4Pal = N[C@@H](Cc1ccncc1)C(=O)O; Cha = N[C@@H](CC1CCCCC1)C(=O)O; Cit = NC(=O)NCCC[C@H](N)C(=O)O; Ile(3ξ) = CCC(C)[C@H](N)C(=O)O; hSer = N[C@@H](CCO)C(=O)O; Carboxymethyl = O=C(O)C*; NMeA = CN[C@@H](C)C(=O)O; Aun = NCCCCCCCCCCC(=O)O; Dab = NCC[C@H](N)C(=O)O; Dap = NC[C@H](N)C(=O)O; AEEA = NCCOCCOCC(=O)O
# Target: T1, PD-1/PD-L1 interaction (PE-labeled human PD-L1-Ig binding to Jurkat cell line over-expressing human PD-1) (Homo sapiens, UniProt Q15116)
# T1 construct: expressed in transfected cells; host or cells: Jurkat
# T1 sequence (Q15116 25-288): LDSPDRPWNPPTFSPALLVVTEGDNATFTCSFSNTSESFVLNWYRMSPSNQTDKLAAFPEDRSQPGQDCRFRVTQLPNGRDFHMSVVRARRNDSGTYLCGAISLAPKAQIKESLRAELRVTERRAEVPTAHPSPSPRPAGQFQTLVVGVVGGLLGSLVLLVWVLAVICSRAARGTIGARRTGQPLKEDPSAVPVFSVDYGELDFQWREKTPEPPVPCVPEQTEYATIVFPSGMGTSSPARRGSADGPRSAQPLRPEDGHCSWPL
# Experiment: Jurkat-PD-1 Cell Binding High-Content Screening Assay (CBA)
# Conditions: Jurkat-hPD-1 cells, PE-labeled PD-L1-Ig 20 nM final; read-out: Jurkat HPD1 PDL1 IC50
# Method in brief: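 Cells 8×10^3/well, DMEM + 10% FCS; cpd 2 h, 37 °C; PE–PD-L1-Ig 20 nM final, 1 h; PFA fix + Hoechst 33342, 3× dPBS wash; high-content imager.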
row,Structure (SMILES),IC50 [nM]
1,CC(=O)NCCCC[C@@H]1NC(=O)[C@H](Cc2ccc(-c3ccccc3)cc2)NC(=O)[C@H](Cc2ccc(O)cc2)NC(=O)[C@H](Cc2cccc(C)c2)NC(=O)[C@H](CC(=O)O)NC(=O)[C@H](Cc2ccc(OCC(=O)O)cc2)NC(=O)[C@H](Cc2ccc(OCC(=O)O)cc2)NC(=O)CSC[C@@H](C(=O)NCCOCCOCC(=O)NCCCCCCCCCCC(=O)O)NC(=O)[C@H](CCO)NC(=O)[C@H](C(C)C)NC(=O)[C@H](CC2CCCCC2)NC(=O)[C@H](CCN)NC(=O)[C@@H](CC(C)C)NC(=O)[C@H](C)N(C)C1=O [Example 2422] ({CH2CO}-Y(Carboxymethyl)Y(Carboxymethyl)D[Phe(3-Me)]Y[Bip]K(Ac)[NMeA][dL][Dab][Cha]V[hSer]C[AEEA][Aun]-OH; thioether N-14),24.9
2,CC(C)C[C@@H]1NC(=O)[C@H](Cc2c[nH]c3ccccc23)NC(=O)[C@H](CC(=O)O)NC(=O)[C@H](Cc2ccc(C(=O)O)cc2)NC(=O)[C@H](Cc2ccc(OCC(=O)O)cc2)NC(=O)CSC[C@@H](C(=O)NCC(=O)N[C@@H](CN)C(=O)NCC(=O)NCCCCCCCCCCC(=O)O)NC(=O)[C@H](CO)NC(=O)[C@H](C(C)C)NC(=O)[C@H](CC2CCCCC2)NC(=O)[C@H](CCN)NC(=O)[C@@H](CC(C)C)NC(=O)[C@H](C)N(C)C(=O)[C@H](C(C)C)NC(=O)[C@H](Cc2ccc(-c3ccccc3)cc2)NC1=O [Example 1028] ({CH2CO}-Y(Carboxymethyl)[Phe(4-COOH)]DWL[Bip]V[NMeA][dL][Dab][Cha]VSCG[Dap]G[Aun]-OH; thioether N-14),14.7
3,Cc1ccc(C[C@@H]2NC(=O)[C@H](Cc3cccc(C)c3)NC(=O)[C@H](CC(=O)O)NC(=O)[C@H](Cc3ccc(C(=O)O)cc3)NC(=O)[C@H](CCN)NC(=O)CSC[C@@H](C(=O)N[C@@H](CCN)C(=O)NCCCCCCCCCCC(=O)O)NC(=O)[C@H](CO)NC(=O)[C@H](C(C)(C)O)NC(=O)[C@H](CC3CCCCC3)NC(=O)[C@H](CCN)NC(=O)[C@@H](CC(C)C)NC(=O)[C@H](C)N(C)C(=O)[C@H](Cc3ccc(OCC(=O)O)cc3)NC(=O)[C@H](Cc3ccc(-c4ccccc4)cc3)NC2=O)cc1 [Example 1301] ({CH2CO}-[Dab][Phe(4-COOH)]D[Phe(3-Me)][Phe(4-Me)][Bip]Y(Carboxymethyl)[NMeA][dL][Dab][Cha][Val(3-OH)]SC[Dab][Aun]-OH; thioether N-14),26.9
4,CC(C)C[C@@H]1NC(=O)[C@H](Cc2c[nH]c3ccccc23)NC(=O)[C@H](CC(=O)O)NC(=O)[C@H](Cc2ccc(OCC(=O)O)cc2)NC(=O)[C@H](Cc2ccccc2)NC(=O)CSC[C@@H](C(=O)N[C@@H](CCN)C(=O)NCCCCCCCCCCC(=O)O)NC(=O)[C@H](CCC(=O)O)NC(=O)[C@H](C(C)C)NC(=O)[C@H](CC(C)C)NC(=O)[C@H](CC(N)=O)NC(=O)[C@@H](CC(C)C)NC(=O)[C@H](C)N(C)C(=O)[C@H](C(C)C)NC(=O)[C@H](Cc2ccc(-c3ccccc3)cc2)NC1=O [Example 1334] ({CH2CO}-FY(Carboxymethyl)DWL[Bip]V[NMeA][dL]NLVEC[Dab][Aun]-OH; thioether N-14),117
5,CCC(C)[C@@H]1NC(=O)[C@H](Cc2ccc(-c3ccccc3)cc2)NC(=O)[C@H](C(C)C)NC(=O)[C@H](Cc2c[nH]c3ccccc23)NC(=O)[C@H](CC(=O)O)NC(=O)[C@H](Cc2ccc(OCC(=O)O)cc2)NC(=O)[C@H](Cc2ccncc2)NC(=O)CSC[C@@H](C(=O)N[C@H](CC(N)=O)C(=O)NCCOCCOCC(=O)NCCCCCCCCCCC(=O)O)NC(=O)[C@H](CO)NC(=O)[C@H](C(C)C)NC(=O)[C@H](CC2CCCCC2)NC(=O)[C@H](CCN)NC(=O)[C@@H](CC(C)C)NC(=O)[C@H](C)N(C)C1=O (stereo partly drawn) [Example 2028] ({CH2CO}-[4Pal]Y(Carboxymethyl)DWV[Bip][Ile(3ξ)][NMeA][dL][Dab][Cha]VSC[dN][AEEA][Aun]-OH; thioether N-14),9.9

# The remaining lines, values ahead:
row,IC50 [nM],Structure (SMILES)
1,8.6,CC(C)C[C@@H]1NC(=O)[C@H](Cc2c[nH]c3ccccc23)NC(=O)[C@H](CC(=O)O)NC(=O)[C@H](Cc2ccncc2)NC(=O)[C@H](Cc2ccc(OCC(=O)O)cc2)NC(=O)CSC[C@@H](C(=O)NCC(=O)NCCOCCOCC(=O)N[C@@H](CCN)C(=O)NCCCCCCCCCCC(=O)O)NC(=O)[C@H](CCCNC(N)=O)NC(=O)[C@H](C(C)C)NC(=O)[C@H](CC2CCCCC2)NC(=O)[C@H](CCN)NC(=O)[C@@H](CC(C)C)NC(=O)[C@H](C)N(C)C(=O)[C@H](C(C)C)NC(=O)[C@H](Cc2ccc(-c3ccccc3)cc2)NC1=O [Example 2170] ({CH2CO}-Y(Carboxymethyl)[4Pal]DWL[Bip]V[NMeA][dL][Dab][Cha]V[Cit]CG[AEEA][Dab][Aun]-OH; thioether N-14)
2,8.2,CC(C)C[C@@H]1NC(=O)[C@H](Cc2c[nH]c3ccccc23)NC(=O)[C@H](CC(=O)O)NC(=O)[C@H](Cc2ccc(C(=O)O)cc2)NC(=O)[C@H](Cc2ccc(OCC(=O)O)cc2)NC(=O)CSC[C@@H](C(=O)N[C@@H](CN)C(=O)NCCOCCOCC(=O)NCCCCCCCCCCC(=O)O)NC(=O)[C@H](CCCNC(N)=O)NC(=O)[C@H](C(C)C)NC(=O)[C@H](CC2CCCCC2)NC(=O)[C@H](CCN)NC(=O)[C@@H](CC(C)C)NC(=O)[C@H](C)N(C)C(=O)[C@H](C(C)C)NC(=O)[C@H](Cc2ccc(-c3ccccc3)cc2)NC1=O [Example 2132] ({CH2CO}-Y(Carboxymethyl)[Phe(4-COOH)]DWL[Bip]V[NMeA][dL][Dab][Cha]V[Cit]C[Dap][AEEA][Aun]-OH; thioether N-14)
3,5.2,CC(C)C[C@@H]1NC(=O)[C@H](Cc2c[nH]c3ccccc23)NC(=O)[C@H](CC(=O)O)NC(=O)[C@H](Cc2ccncc2)NC(=O)[C@H](Cc2ccc(OCC(=O)O)cc2)NC(=O)CSC[C@@H](C(=O)N[C@@H](CCN)C(=O)NCCOCCOCC(=O)NCCCCCCCCCCC(=O)O)NC(=O)[C@H](CO)NC(=O)[C@H](C(C)C)NC(=O)[C@H](CC2CCCCC2)NC(=O)[C@H](CCN)NC(=O)[C@@H](CC(C)C)NC(=O)[C@H](C)N(C)C(=O)[C@H](C(C)C)NC(=O)[C@H](Cc2ccc(-c3ccccc3)cc2)NC1=O [Example 1089] ({CH2CO}-Y(Carboxymethyl)[4Pal]DWL[Bip]V[NMeA][dL][Dab][Cha]VSC[Dab][AEEA][Aun]-OH; thioether N-14)

# Same assay, conditions: PE-labeled PD-L1-Ig 20 nM final, Jurkat-hPD-1 cells; read-out: Jurkat HPD1 PDL1 IC50
row,Structure (SMILES),IC50 [nM]
1,CC(=O)NCCCC[C@@H]1NC(=O)[C@H](C(C)(C)O)NC(=O)[C@H](CC2CCCCC2)NC(=O)[C@H](CCN)NC(=O)[C@@H](CC(C)C)NC(=O)[C@H](C)N(C)C(=O)[C@H](CCCNC(=N)N)NC(=O)[C@H](Cc2ccc(-c3ccccc3)cc2)NC(=O)[C@H](Cc2ccc(C(=O)O)cc2)NC(=O)[C@H](Cc2cccc(C(F)(F)F)c2)NC(=O)[C@H](CC(=O)O)NC(=O)[C@H](Cc2ccc(OCC(=O)O)cc2)NC(=O)[C@H](Cc2ccc(OCC(=O)O)cc2)NC(=O)CSC[C@@H](C(=O)N[C@@H](CCN)C(=O)NCCCCCCCCCCCCC(=O)O)NC1=O [Example 2638] ({CH2CO}-Y(Carboxymethyl)Y(Carboxymethyl)D[Phe(3-CF3)][Phe(4-COOH)][Bip]R[NMeA][dL][Dab][Cha][Val(3-OH)]K(Ac)C[Dab]-{NH(CH2)12COOH}; thioether N-14),9.1
